Results reported in patent publication US11497788B2, “Supramolecular glycosaminoglycans” (Northwestern University, priority 2015, dated 2022).

How the values were obtained:
[1] = test system: rat posterolateral lumbar intertransverse spinal fusion model; test: Rat posterolateral lumbar intertransverse spinal fusion model; format: in vivo
Description: Rat Posterolateral Lumbar Intertransverse Spinal Fusion: The study was approved by and conducted in line with the Institutional Animal Care and Use Committee (IACUC) policies and procedures. […] female Sprague-Dawley rats at ages 12-16 weeks were utilized. Animals were assigned to the following treatment groups: 1) 100 ng BMP-2, n=8; 2) 100 ng BMP-2 with PA 4 nanofibers, n=12; and 3) 100 ng BMP-2 with PA 1 nanofibers, n=12. The denoted BMP-2 dose refers to total growth factor amount implanted via two absorbable collagen sponges per animal. For instance, in the 100 ng BMP-2 control group, two collagen sponges (1.75×0.5×0.5 cm) were each impregnated with 50 ng BMP-2 in 100 uL saline containing 6 mM CaCl2, then implanted adjoining the L4-L5 transverse processes on either side of the spine. For PA groups, 100 uL of PA solutions (6 mM) were used in place of saline.
PA solutions were spun down, pipetted for homogeneous mixing, then mixed with BMP-2 at 10:1 vol. ratio to yield 6 mM PA with appropriate BMP-2 concentrations.
Surgical Procedures: Rats were maintained on a heating pad under continuous anesthesia with an isoflurane inhalational anesthetic delivery system, and they were monitored by an assistant for cardiac or respiratory difficulties throughout the procedure. Utilizing a previously-described surgical technique (refs. 23, 41; incorporated by reference in their entireties), the L4 and L5 transverse processes were exposed, irrigated with sterile gentamicin/saline solution, the superficial cortical layer decorticated with a high-speed burr, then collagen sponges with appropriate treatments were implanted bilaterally in the paraspinal musculature between the transverse processes. Afterwards, the fascia and skin incisions were closed, and rats were housed in separate cages.
Manual Palpation: Fusion was assessed via manual palpation following euthanasia at 8 weeks post-surgery. Spines were scored by three blinded observers using a previously established scoring system: 0=no bridging; 1=unilateral bridging; and 2=bilateral bridging (23, 41). To assess fusion rate, spines that received an average score of 1.0 or greater were considered successfully fused.
Micro-Computed Tomography: Synchrotron micro-computed tomography (μCT) was performed on representative samples at station 2-BM of the APS (42, 43). Due to the size constraint of the μCT set-up, harvested spines were sagittally cut along the midline of the vertebrate body, using a slow-speed diamond saw (ref. 43; incorporated by reference in its entirety). Data were acquired with 27 keV photons, projections were recorded every 0.12° over 180°, and reconstruction was on a 2,048×2,048 grid with isotropic 1.45 μm voxels using TomoPy (44). […]

BMP-2 = molecular target: T1, BMP-2 (Homo sapiens, UniProt P12643); test: BMP-2 stability assay (ELISA) in C2C12 culture; format: cell-based; conditions: 75 ng/mL BMP-2; 0, 3, 9, 24 h
T1 construct: purchased Medtronic Sofamor Danek (Minneapolis, Minn.)
T1 sequence (P12643 283-396): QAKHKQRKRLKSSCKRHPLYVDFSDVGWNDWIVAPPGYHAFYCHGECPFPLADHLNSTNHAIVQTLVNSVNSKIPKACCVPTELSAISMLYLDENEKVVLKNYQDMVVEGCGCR
Description: BMP-2 Stability Assay: C2C12 cells were seeded at 150,000 cells/mL (500 μL/well in a 48-well plate) and incubated overnight. Following, the media was replaced with treatment media (75 ng/mL BMP-2 in the presence/absence of PA 1, PA 4, and monosaccharide 1. The media was collected at 0, 3, 9, and 24 h and stored at −80° C. prior to BMP-2 quantification. In addition, the cell monolayers were lysed at the indicated time with a 100 μL of M-PER Mammalian Protein Extraction Reagent, supplemented with 1×Halt Protease Inhibitor Cocktail, and also stored at −80° C. prior to BMP-2 quantification. The amount of BMP-2 present in the media and cell extracts was assayed using a BMP-2 Quantikine ELISA kit (R&D Systems) according to the manufacturer's specifications.

[2] = test system: EHBMP-2 (BMP-2 mutated at the N-terminal heparin-binding domain) in C2C12 cells; test: ALP activity in C2C12 cells with mutant EHBMP-2; format: cell-based, mouse; conditions: mutant BMP-2 with negligible heparin binding
Description: C2C12 Cell Culture: C2C12 mouse myoblasts (ATCC) were maintained in Dulbecco's Modified Eagle's Medium with high glucose and L-glutamine (DMEM, ATCC), supplemented with 100 U/mL of penicillin and 100 μg/mL streptomycin (P/S, Life Technologies) and 10% heat inactivated FBS (Life Technologies), and passaged at 80-90% confluence. Media was changed every 2 days. Passages 3 to 8 were used for experiments. Cells were grown at 37° C., 5% CO2 in a humidified atmosphere. Cells were detached following a 3 minute incubation at 37° C. with 0.05% Trypsin-EDTA (Life Technologies), then resuspended in DMEM (10% FBS). Unless stated otherwise, cells were seeded at 75,000 cells/mL (400 μL/well in a 48-well plate), and allowed to attach for a minimum of 3 hours prior to experiments.
C2C12 Osteoblast Differentiation: PA samples were thermally annealed as described for Cryo-TEM. PA solutions were spun down, pipetted for homogeneous mixing, then diluted to 1 mM with DMEM (no FBS). […] Cells were cultured for 3 days without changing the media, and osteoblast differentiation was assessed.
Alkaline Phosphatase Activity: Alkaline phosphatase (ALP) activity was measured as a marker of osteoblast differentiation (ref. 38; incorporated by reference in its entirety). […] The ALP activity was assessed by reading the OD at 630 nm with Cytation3 microplate reader (BioTek). […]

3,4,6S-GlcNAc PA (VVAAEEK) [PA 1, glycosylated peptide amphiphile: Alkyne PA click-conjugated with trisulfated monosaccharide 1]
fusion scores, blind manual palpation ([1]; 100 ng BMP-2, 6 mM PA, 8 weeks, relative to PA 4 nanofibers or saline): highest fusion scores
fusion rate ([1]; 100 ng BMP-2, 6 mM PA, 8 weeks, score ≥1 = fused): 100%
new bone formation, synchrotron micro-computed tomography ([1]; 100 ng BMP-2 delivered with nanofibers): formation of new bone connecting the transverse processes
reduction of required GF (BMP-2) for spinal fusion ([1]; 100 ng versus 10 μg BMP-2 required in the model): 100 fold
BMP-2 stability in cell culture media (BMP-2): improved BMP-2 stability
ALP expression using EHBMP-2 [2]: minimally affected
